This is an account of results in EPA's ToxValDB 9.5 (doi:10.2903/j.efsa.2016.4569).

Values after ≈ are worked out from the molar mass of the structure shown.

The test system of one data set is Oncorhynchus mykiss. As to conditions: acute; duration: 96 hours; mortality.
A further data set has as its system Tagia sp. As to conditions: for NOEC: chronic/long-term, reproduction; for LC50: acute, mortality.
The next data set deals with Rattus norvegicus. As to conditions: for LD50: acute, mortality.
The test system of a further data set is Lepomis macrochirus. Particulars: chronic/long-term; other.
The subject of a further data set is Daphnia magna. As to conditions: chronic/long-term; duration: 21 days; reproduction.
The subject of a further data set is Folsomia candida. Particulars: chronic/long-term; reproduction.
The subject of the next data set is Oryctolagus sp. As to conditions: chronic; other.
A further data set has as its system Apis mellifera. Particulars: acute, mortality.
The next data set deals with Aphidius rhopalosiphi. Nature of the data set: LR50; higher = less toxic. Particulars: not reported; mortality.
Setting [1] is: short-term, duration: 28 days, M.

Consider `O=C(O)c1cc(-n2nc(CO)n(C(F)F)c2=O)c(F)cc1Cl`, for which the LC50 with Oncorhynchus mykiss is more than 100 mg/L. Besides, the NOEC with Tagia sp. was determined as 0.056 mg/kg. In addition, the NOAEL (in general, the highest dose or exposure tested at which no adverse effect was seen) in the data set with Rattus norvegicus (setting [1]) came out at 10.1 mg/kg-day.
For the compound `Cc1nn(-c2cc(C(=O)O)c(Cl)cc2F)c(=O)n1C(F)F`, the LC50 in the data set on Oncorhynchus mykiss is more than 92.5 mg/L; in the data set on Tagia sp., more than 1000 mg/kg. In addition, the NOAEL in the data set with Rattus norvegicus (setting [1]) came out at 5.4 mg/kg-day.
In the data set on Tagia sp., `Cc1nn(-c2cc(C=CC(=O)O)c(Cl)cc2F)c(=O)n1C(F)F` displayed an LC50 of more than 500 mg/kg. The compound also yielded an NOAEL in the data set on Rattus norvegicus (setting [1]) of 1 mg/kg-day.
Consider `Cc1nn(-c2cc(CCC(=O)O)c(Cl)cc2F)c(=O)n1C(F)F`, for which the LC50 with Tagia sp. was more than 1000 mg/kg. The NOAEL in the data set on Rattus norvegicus (short-term, M) stood at 1.4 mg/kg-day.
Regarding `COc1cc(-n2nc(C)n(C(F)F)c2=O)c(F)cc1Cl`, the LC50 with Oncorhynchus mykiss is more than 20.9 mg/L. In the data set on Tagia sp., this compound registered an NOEC of 0.256 mg/kg. In the data set with Rattus norvegicus (setting [1]), this compound registered a no observed adverse effect level (NOAEL) of 8.5 mg/kg-day.
In the case of `Cc1n[nH]c(=O)n1C(F)F`, the values for the LC50 in the data set on Oncorhynchus mykiss and in the data set on Tagia sp. were more than 100 mg/L and more than 100 mg/kg, respectively. In the data set on Rattus norvegicus (subchronic, duration: 90 days, M), the NOAEL was found to be 0.666 mg/kg-day.
For `O=C(O)c1cc(-n2ncn(C(F)F)c2=O)c(F)cc1Cl` [3-Desmethyl-F8426-benzoic acid], in the data set on Rattus norvegicus (setting [1]), the NOAEL worked out at 5.4 mg/kg-day.
`O=C(O)CCc1cc(-n2ncn(C(F)F)c2=O)c(F)cc1Cl` [3-Desmethyl-F8426-propionic acid] yielded an NOAEL in the data set with Rattus norvegicus (short-term, M) of 1.4 mg/kg-day.
In turn, `O=C(O)CCc1cc(-n2nc(CO)n(C(F)F)c2=O)c(F)cc1Cl` [3-Hydroxymethyl-F8426-propionic acid] showed an NOAEL in the data set with Rattus norvegicus (setting [1]) of 1.4 mg/kg-day.
Regarding `CCOC(=O)C(Cl)Cc1cc(-n2nc(C)n(C(F)F)c2=O)c(F)cc1Cl` (configuration not stated) [Carfentrazone-ethyl], the LC50 in the data set with Oncorhynchus mykiss is 1.6 mg/L (≈ 3.88 µM); in the data set on Tagia sp. it was more than 410 mg/kg. Moreover, the NOEC came to 0.0187 mg/L with Lepomis macrochirus; 94 mg/kg-day with Colinus virginianus (chronic); 0.22 mg/L with Daphnia magna; 8 mg/kg in the data set on Tagia sp.; 0.975 mg/kg in the data set with Folsomia candida. The LD50 in the data set on Colinus virginianus (acute, oral, mortality) was more than 2250 mg/kg-day; with Rattus norvegicus (F), more than 5140 mg/kg-day; in the data set on Rattus norvegicus (oral, M) it was more than 5000 mg/kg; with Apis mellifera (dermal), more than 81 µg/piece; with Apis mellifera (oral, unspecified) it was more than 81 µg/piece. The NOAEL was 40 mg/kg-day with Oryctolagus sp. and 58 mg/kg-day with Rattus norvegicus (subchronic, duration: 90 days, oral, hematological). The compound also came in with an LR50 in the data set on Aphidius rhopalosiphi of 23.5 g/ha.
Take `Cc1nn(-c2cc(CC(Cl)C(=O)O)c(Cl)cc2F)c(=O)n1C(F)F` (configuration not stated) [Carfentrazone]: the LC50 in the data set with Oncorhynchus mykiss is more than 99.2 mg/L; with Tagia sp., more than 1000 mg/kg.
In the case of `Cc1nn(-c2cc(CC(C(=O)O)S(=O)(=O)O)c(Cl)cc2F)c(=O)n1C(F)F` (stereo not drawn) [F8426-alpha-Sulfodeschloropropionic acid], the LC50 in the data set on Oncorhynchus mykiss was more than 100 mg/L; with Tagia sp., more than 100 mg/kg. In the data set on Rattus norvegicus (setting [1]), this compound returned a no observed adverse effect level (NOAEL) of 0.359 mg/kg-day.
Regarding `O=C(O)c1cc(-n2nc(C(=O)O)n(C(F)F)c2=O)c(F)cc1Cl` [F8426-dicarboxylic acid], in the data set with Oncorhynchus mykiss, the LC50 is more than 100 mg/L. Besides, the NOEC in the data set on Tagia sp. came out at 0.152 mg/kg. In the data set with Rattus norvegicus (setting [1]), this compound had an NOAEL of 12.1 mg/kg-day.
